Laboratory results as given in patent publication US9945845B2, “Methods of screening using amphibians” (priority 2009, dated 2018).

Tests used:
[1] = system: HUVEC; test: HUVEC cell proliferation assay; format: cell-based, human; conditions: Homo sapiens, HUVEC, 48 h, 10 μM in 0.1% DMSO, 48 hours; read-out: HUVEC proliferation
In short: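 HUVEC and LEC in EBM with 20% FBS, hydrocortisone and dibutyryl-cAMP were treated with compound at 10 μM in 0.1% DMSO for 48 hours. Viable cells read by fluorescence, in five replicates.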

[2] = system: blood vessel development and/or lymphangiogenesis in Xenopus embryos; format: in vivo, Xenopus laevis
In short: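 Albino Xenopus embryos treated at 20 μM final (from 10-mM DMSO stocks) in screening medium, 7 per well, from stage 31 (37 hpf) to stage 35/36 (50 hpf) or 42 (80 hpf). Fixed in 4% paraformaldehyde and scored by whole-mount in situ hybridization: vasculogenesis and intersomitic vein angiogenesis at stage 35/36, lymph vessel development at stage 42.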

With Oc1cc(-c2ccccc2)nc2nc(Cl)ccc12 [7-Chloro-4-hydroxy-2-phenyl-1,8-naphthyridine] the activity at 10 µM [1] was 42 to 48%, the “blood vessel development phenotype (apj expression, in words)” value ([2]; 20 μM from stage 31, fixed at stage 35/36) was “interfered not only with ISV angiogenesis but also with VVN assembly” and the “lymph vessel development phenotype (vegfr3 expression, in words)” value ([2]; 20 μM from stage 31, fixed at stage 42) was “stunted, disorganized lymphatic vessels arising from the ALS and ALH”. For the same molecule, the ALH phenotype ([2]; anterior lymph heart, Xenopus embryos) was “dysplastic”, the ALS phenotype ([2]; anterior lymph sac, Xenopus embryos) was “stunted” and the ISV phenotype ([2]; intersomitic vessels, Xenopus embryos) was “stunted”. The PCV phenotype ([2]; posterior cardinal vein, Xenopus embryos) was “normal”, the PLV phenotype ([2]; posterior lymph vessels, Xenopus embryos) was “hypoplastic” and the VVN phenotype ([2]; vitelline vein network, Xenopus embryos) was “hypoplastic”.
